Entries after “also recorded” stand apart in the source; their conditions may differ.
Legend:
[1] = tested on: clone 27 HepG2 cells transfected with human GPR35a; experiment: Cellular impedance in clone 27 cells transiently transfected with human GPR35a; format: cell-based; details: lodoxamide 1 × 10^–8 M
Procedure: (§1) Briefly, CRISPR KO cells were transiently transfected 24 h with the human GPR35a expression vector using LipofectAMINE 3000 reagent, according to the manufacturer’s instructions. […] Alternatively, after 24 h transfection, cells were seeded onto a 12-well plate (1 × 10^5 cells/well) for 24 h at 37 °C. Then, cells were incubated with T0901317 and/or GPR35 agonists (in MEM containing 5% FBS) for 72 h. After the drug treatment, cells were stained with Oil Red O to examine the levels of lipid accumulation. Each experiment was repeated at least three times.
HepG2 cells were seeded onto xCELLigence E plates (2 × 10^4 cells/well) and incubated for 24 h at 37 °C. To evaluate GPR35 activation and its downstream G protein signaling, HepG2 cells or primary mouse hepatocytes were exposed to GPR35 antagonists or G protein inhibitors 1 h (overnight for Pertussis toxin) prior to GPR35 agonist stimulation. After the addition of GPR35 agonist or vehicle control, the impedance (represented as “cell index”) was recorded every 30 s over a 2 h period using xCELLigence RTCA (Agilent). Each experiment was repeated at least three times.

[2] = tested on: GPR35a-reconstituted clone 27 HepG2 cells; experiment: Oil Red O lipid accumulation in GPR35a-reconstituted clone 27 cells; format: cell-based, human; details: clone 27, 72 h
Procedure: as §1
Lipid accumulation was measured by Oil Red O staining. A working solution of Oil Red O was prepared, as described with modification.[46] After drug treatment, cells were washed with PBS and fixed with formalin solution for 1 h at 4 °C. Then, cells were stained with Oil Red O working solution for 10 min at room temperature. After PBS washing, Oil Red O was extracted from cells using 150 μl of isopropanol and OD510 nm measured. […] These cells were then stained with Hoechst 33342 (1 μg/mL) and the fluorescence intensity of Hoechst (represents the DNA content in cells) was measured using a CLARIOstar plate reader (BMG LABTECH). Oil Red O accumulation was corrected for differences in DNA content and expressed as relative absorbency, taking the control condition (treated with vehicle only) as 1.

[3] = tested on: hepatocytes from hGPR35a-HA-expressing mice; experiment: Oil Red O lipid accumulation in hepatocytes from hGPR35a-HA-expressing mice; format: cell-based, mouse
Procedure: All mice were bred as WT or homozygous onto a C57BL/6N background. Animals were cared for in accordance with national guidelines on animal experimentation. All animal experiments were conducted under a home office license held by the authors. WT, humanized GPR35a, or KO male mice at 3–4 months of age were used in this study. These mice were fed ad libitum with a standard mouse chow diet. Briefly, mouse primary hepatocytes were isolated using a two-step collagenase perfusion technique.[45] Twelve-well plates or xCELLigence E plates were coated with rat tail collagen I solution (Thermo Fisher Scientific) overnight at 37 °C and washed with PBS. Isolated primary hepatocytes were seeded onto 12-well plates (8 × 10^4 cells/well) or xCELLigence E plates (2 × 10^4 cells/well) in Wiliam’s E medium (Thermo Fisher Scientific) supplemented with 10% fetal bovine serum (FBS) and 1× penicillin/streptomycin. Cells were maintained for 7 days with a fresh medium change every other day. […] Human GPR35 activation was examined using xCELLigence RTCA assay. To access the impact of GPR35 agonists on the lipid accumulation, WT and humanized GPR35 hepatocytes were incubated with T0901317 and/or GPR35 agonists/antagonists, as indicated (in DMEM medium containing 5% FBS and 1.5% BSA) for 48 h. Alternatively, GPR35 KO hepatocytes were incubated with drugs, as indicated for 5 days. In the T0901317 pretreatment model, human GPR35 hepatocytes were stimulated with T0901317 for 2 days and then further treated with lodoxamide for a further 3 days. After each drug treatment, hepatocytes were stained with Oil Red O and quantified as described. Each experiment was repeated at least three times.
Lipid accumulation was measured by Oil Red O staining. A working solution of Oil Red O was prepared, as described with modification.[46] After drug treatment, cells were washed with PBS and fixed with formalin solution for 1 h at 4 °C. Then, cells were stained with Oil Red O working solution for 10 min at room temperature. After PBS washing, Oil Red O was extracted from cells using 150 μl of isopropanol and OD510 nm measured. After the lipid extraction, cells were further soaked in PBS overnight at 4 °C. These cells were then stained with Hoechst 33342 (1 μg/mL) and the fluorescence intensity of Hoechst (represents the DNA content in cells) was measured using a CLARIOstar plate reader (BMG LABTECH). Oil Red O accumulation was corrected for differences in DNA content and expressed as relative absorbency, taking the control condition (treated with vehicle only) as 1.

[4] = biological target: human GPR35a (Homo sapiens, UniProt Q9HC97); experiment: β-arrestin-based interaction assay, agonist potency at human GPR35a; format: cell-based
Chain of human GPR35a (Q9HC97 whole entry): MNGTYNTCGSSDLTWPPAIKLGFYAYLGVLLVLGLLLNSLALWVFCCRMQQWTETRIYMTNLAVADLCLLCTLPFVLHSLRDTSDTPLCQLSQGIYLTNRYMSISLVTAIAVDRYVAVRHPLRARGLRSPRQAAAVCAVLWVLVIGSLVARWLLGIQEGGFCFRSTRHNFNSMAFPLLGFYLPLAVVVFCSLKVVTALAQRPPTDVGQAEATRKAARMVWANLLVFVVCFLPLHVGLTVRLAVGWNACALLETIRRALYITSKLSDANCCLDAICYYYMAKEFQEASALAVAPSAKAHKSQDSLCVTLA

[5] = tested on: high-fat diet-induced wild-type mice; design: method as in PMID 31189299; details: oral, 1 mg/kg, final 7 days of a 7-week-diet exposure; cited from earlier work
[6] = tested on: HepG2 cells; experiment: Oil Red O staining of LXR (T0901317)-induced lipid accumulation in HepG2 cells; format: cell-based, human
Procedure: Human hepatocellular carcinoma HepG2 cells were grown in Minimum Essential Medium (MEM) supplemented with 10% fetal bovine serum (FBS), 2 mM L-glutamine, 1× non-essential amino acid, 1 mM sodium pyruvate, and 1× penicillin/streptomycin. Materials for cell culture were all from Sigma-Aldrich (St. Louis, MO) or Thermo Fisher Scientific (Waltham, MA). Cells were incubated in a humidified CO2 incubator at 37 °C. […] Cells were seeded onto a 12-well plate (1 × 10^5 cells/well) for 24 h prior to drug treatment. […] Lipid accumulation was measured by Oil Red O staining.

SMILES: N#Cc1cc(NC(=O)C(=O)O)c(Cl)c(NC(=O)C(=O)O)c1 [lodoxamide, 2-[2-chloro-5-cyano-3-(oxaloamino)anilino]-2-oxoacetic acid]
- impedance signal in clone 27 cells transfected with human GPR35a [1]: stimulated signal
- lipid accumulation induced by T0901317 in GPR35a-reconstituted cells [2]: again able to prevent the lipid accumulation
- EC50 ([3]; Mus musculus, Hepatocyte, hepatocytes from hGPR35a-HA-expressing mice, co-addition with T0901317 8 × 10^–6 M, 48 h, read-out: EC50 for prevention of T0901317-induced lipid accumulation): 17 nM
- reversal of pre-established lipid accumulation ([3]; T0901317 8 × 10^–6 M for 2 days, then lodoxamide added with continued T0901317): sufficient to reduce lipid levels to those observed in the absence of T0901317; also recorded: reduced to basal
- potency in the reversal setting relative to co-addition ([3]; T0901317 pretreatment model): less potent than when added alongside T0901317
- ratio (log) (H/M) ([4]; log ratio of potency at human GPR35a over mouse GPR35): 2.66 ± 0.05
- EC50 ([4]; β-arrestin-based interaction assay, read-out: human GPR35a, pEC50 (converted)): 4.17 nM
- effect of treatment in high-fat diet-induced wild-type mice [5]: beneficial effects
- effect on basal lipid accumulation without co-addition of T0901317 ([6]; 1 × 10^–5 M): no significant effect
- EC50 ([6]; Homo sapiens, co-incubation with T0901317 4 × 10^–6 M, 48 h, Oil Red O, read-out: EC50 for reduction in the lipid accumulation induced by T0901317): 95 nM
- effect of T0901317 on lipid accumulation at maximally effective concentrations of lodoxamide ([6]; T0901317 4 × 10^–6 M, 48 h): fully suppressed

Reference: publication PMC8669712, “G Protein-Coupled Receptor GPR35 Suppresses Lipid Accumulation in Hepatocytes” (ACS Pharmacology & Translational Science, 2021)
